Patent publication US6525001B1, “Substituted pyrimidine and pyridine herbicides” (Mid-American Commercialization Corporation, priority 1997, dated 2003)

Experiments:
Type in all cases: in vivo
Set-up in all cases: key: 0 is no effect; 10 is complete control
[1] = test system: bamyardgrass (Echinochloa crus-galli); test: Test B flood test
In short: (§1)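 Plants were grown to the 2-leaf stage before treatment with test chemical, then held in a greenhouse for twelve to sixteen days. Injury was visually rated against untreated controls on a 0–10 scale, where 0 is no effect and 10 is complete control.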

rice (Oryza sativa) = test: Test B flood test
In short: as §1

[2] = test system: smallflower flatsedge (Cyperus difformis); test: Test B flood test
In short: as §1

[3] = test system: duck salad (Heteranthera limosa); test: Test B flood test
In short: as §1

[4] = test system: blackgrass (Alopecurus myosuroides); test: Test B pre-/postemergence; settings: for Blackgrass plant response rating: Preemergence
Description: (§2) Seeds of bedstraw (Galium aparine), blackgrass (Alopecurus myosuroides), broadleaf signalgrass (Brachiaria decumbens), cocklebur (Xanthium strumarium), corn (Zea mays), crabgrass (Digitaria sanguinalis), giant foxtail (Setaria faberii), lambsquarters (Chenopodium album), momingglory (Ipomoea hederacea), pigweed (Amaranthus retroflexus), rape (Brassica napus), soybean (Glycine max), sugar beet (Beta vulgaris), velvetleaf (Abutilon theophrasti), wheat (Triticum aestivum), wild oat (Avena fatua) and purple nutsedge (Cyperus rotundus) tubers were planted and treated preemergence with test chemicals formulated in a non-phytotoxic solvent mixture which included a surfactant.
(§3) At the same time, these crop and weed species were also treated with postemergence applications of test chemicals formulated in the same manner. Plants ranged in height from 2 to 18 cm (1- to 4-leaf stage) for postemergence treatments. Plant species in the flood test consisted of rice (Oryza sativa), smallflower flatsedge (Cyperus difformis), duck salad (Heteranthera limosa) and bamyardgrass (Echinochloa crus-galli) grown to the 2-leaf stage for testing. Treated plants and controls were maintained in a greenhouse for twelve to sixteen days, after which all species were compared to controls and visually evaluated. Plant response ratings, summarized in Table B, are based on a scale of 0 to 10 where 0 is no effect and 10 is complete control. A dash (−) response means no test result.

[5] = test system: broadleaf signalgrass (Brachiaria decumbens); test: Test B pre-/postemergence; settings: for B. signalgrass plant response rating: Preemergence
Description: as §2, §3

[6] = test system: wheat (Triticum aestivum); test: Test B pre-/postemergence
Description: as §2, §3

[7] = test system: bedstraw (Galium aparine); test: Test B pre-/postemergence; settings: for Plant response rating, Bedstraw: Postemergence; for Bedstraw plant response rating: Preemergence
Description: as §2, §3

wild oat (Avena fatua) = test: Test B pre-/postemergence
Description: as §2, §3

soybean (Glycine max) = test: Test B pre-/postemergence
Description: as §2, §3

[8] = test system: pigweed (Amaranthus retroflexus); test: Test B pre-/postemergence
Description: as §2, §3

[9] = test system: purple nutsedge (Cyperus rotundus); test: Test B pre-/postemergence; settings: for Nutsedge plant response rating: Preemergence
Description: as §2, §3

[10] = test system: cocklebur (Xanthium strumarium); test: Test B pre-/postemergence; settings: for Plant response rating, Cocklebur: Postemergence
Description: as §2, §3

rape (Brassica napus) = test: Test B pre-/postemergence
Description: as §2, §3

[11] = test system: giant foxtail (Setaria faberii); test: Test B pre-/postemergence
Description: as §2, §3

corn (Zea mays) = test: Test B pre-/postemergence; settings: for Corn plant response rating: Preemergence
Description: as §2, §3

[12] = test system: sugar beet (Beta vulgaris); test: Test B pre-/postemergence
Description: as §2, §3

[13] = test system: crabgrass (Digitaria sanguinalis); test: Test B pre-/postemergence; settings: for Crabgrass plant response rating: Preemergence
Description: as §2, §3

[14] = test system: velvetleaf (Abutilon theophrasti); test: Test B pre-/postemergence
Description: as §2, §3

[15] = test system: momingglory (Ipomoea hederacea); test: Test B pre-/postemergence
Description: as §2, §3

[16] = Rate 62 g/ha, Postemergence (flood test)
[17] = Rate 125 g/ha, Postemergence, flood test
[18] = Rate 250 g/ha, Postemergence (flood test species)
[19] = Rate 125 g/ha, Postemergence section (flood test species)
[20] = Rate 250 g/ha, Postemergence (so in the source)

**Q.** Which results are given for Cc1cnc(-c2ccc(Cl)c(Cl)c2)nc1Cc1cccc(C(F)(F)F)c1 [Compound 27]?
**A.** Plant response rating, Barnyardgrass [1, 16]: 1; Plant response rating, Barnyardgrass [1, 17]: 2; Plant response rating, Barnyardgrass [1, 18]: 3; Plant response rating, Rice (rice (Oryza sativa); [16]): 0; Rice plant response rating (rice (Oryza sativa); [19]): 1; Plant response rating, Rice (rice (Oryza sativa); [18]): 1; Plant response rating, S. Flatsedge [2, 16]: 5; S. Flatsedge plant response rating [2, 19]: 5; Plant response rating, S. Flatsedge [2, 18]: 5; Plant response rating, Ducksalad [3, 16]: 0; Plant response rating, Ducksalad [3, 17]: 1; Plant response rating, Ducksalad [3, 18]: 2; Plant response rating, Blackgrass ([4]; Rate 62 g/ha, Postemergence): 4; Blackgrass plant response rating ([4]; Rate 62 g/ha): 0; Plant response rating, Blackgrass ([4]; Rate 125 g/ha, Postemergence): 4; Blackgrass plant response rating ([4]; Rate 125 g/ha): 2; Plant response rating, Blackgrass ([4]; Rate 250 g/ha, Postemergence): 5; Plant response rating, Blackgrass [4, 20]: 4; Plant response rating, B. signalgrass ([5]; Rate 62 g/ha, Postemergence): 3; B. signalgrass plant response rating ([5]; Rate 62 g/ha): 0; Plant response rating, B. signalgrass ([5]; Rate 125 g/ha, Postemergence): 5; B. signalgrass plant response rating ([5]; Rate 125 g/ha): 1; Plant response rating, B. signalgrass ([5]; Rate 250 g/ha, Postemergence): 5; Plant response rating, B. signalgrass ([5]; Rate 250 g/ha, Postemergence as printed in head r139 (second section for compounds 26-50)): 3; Plant response rating, Wheat ([6]; Rate 62 g/ha, Postemergence): 3; Wheat plant response rating ([6]; Rate 62 g/ha, Preemergence): 0; Wheat plant response rating ([6]; Rate 125 g/ha, Postemergence): 4; Plant response rating, Wheat ([6]; Rate 125 g/ha, Preemergence): 0; Plant response rating, Wheat ([6]; Rate 250 g/ha, Postemergence): 4; Plant response rating, Wheat [6, 20]: 1; Plant response rating, Bedstraw ([7]; Rate 62 g/ha): 8; Bedstraw plant response rating ([7]; Rate 62 g/ha): 0; Plant response rating, Bedstraw ([7]; Rate 125 g/ha): 9; Bedstraw plant response rating ([7]; Rate 125 g/ha): 0; Plant response rating, Bedstraw ([7]; Rate 250 g/ha): 9; Plant response rating, Wild oats (wild oat (Avena fatua); Rate 62 g/ha, Postemergence): 3; Wild oats plant response rating (wild oat (Avena fatua); Rate 62 g/ha, Preemergence): 0; Wild oats plant response rating (wild oat (Avena fatua); Rate 125 g/ha, Postemergence): 4; Plant response rating, Wild oats (wild oat (Avena fatua); Rate 125 g/ha, Preemergence): 1; Plant response rating, Wild oats (wild oat (Avena fatua); Rate 250 g/ha, Postemergence): 5; Plant response rating, Wild oats (wild oat (Avena fatua); [20]): 3; Plant response rating, Soybean (soybean (Glycine max); Rate 62 g/ha, Postemergence): 5; Soybean plant response rating (soybean (Glycine max); Rate 62 g/ha, Preemergence): 0; Soybean plant response rating (soybean (Glycine max); Rate 125 g/ha, Postemergence): 5; Plant response rating, Soybean (soybean (Glycine max); Rate 125 g/ha, Preemergence): 0; Plant response rating, Soybean (soybean (Glycine max); Rate 250 g/ha, Postemergence): 7; Plant response rating, Soybean (soybean (Glycine max); [20]): 0; Plant response rating, Redroot pigweed ([8]; Rate 62 g/ha, Postemergence): 7; Redroot pigweed plant response rating ([8]; Rate 62 g/ha, Preemergence): 2; Redroot pigweed plant response rating ([8]; Rate 125 g/ha, Postemergence): 9; Redroot pigweed plant response rating ([8]; Rate 125 g/ha, Preemergence): 6; Plant response rating, Redroot pigweed ([8]; Rate 250 g/ha, Postemergence): 10; Plant response rating, Redroot pigweed [8, 20]: 7; Plant response rating, Nutsedge ([9]; Rate 62 g/ha, Postemergence): 2; Nutsedge plant response rating ([9]; Rate 62 g/ha): 0; Nutsedge plant response rating ([9]; Rate 125 g/ha): 0; Plant response rating, Nutsedge [9, 20]: 0; Plant response rating, Cocklebur ([10]; Rate 62 g/ha): 7; Cocklebur plant response rating ([10]; Rate 62 g/ha, Preemergence): 0; Plant response rating, Cocklebur ([10]; Rate 125 g/ha): 7; Plant response rating, Cocklebur ([10]; Rate 250 g/ha): 9; Plant response rating, Rape (rape (Brassica napus); Rate 62 g/ha, Postemergence): 8; Rape plant response rating (rape (Brassica napus); Rate 62 g/ha, Preemergence): 1; Rape plant response rating (rape (Brassica napus); Rate 125 g/ha, Postemergence): 8; Rape plant response rating (rape (Brassica napus); Rate 125 g/ha, Preemergence): 2; Plant response rating, Rape (rape (Brassica napus); Rate 250 g/ha, Postemergence): 9; Plant response rating, Rape (rape (Brassica napus); [20]): 3; Plant response rating, Giant foxtail ([11]; Rate 62 g/ha, Postemergence): 3; Giant foxtail plant response rating ([11]; Rate 62 g/ha, Preemergence): 2; Giant foxtail plant response rating ([11]; Rate 125 g/ha, Postemergence): 4; Giant foxtail plant response rating ([11]; Rate 125 g/ha, Preemergence): 5; Plant response rating, Giant foxtail ([11]; Rate 250 g/ha, Postemergence): 4; Plant response rating, Giant foxtail [11, 20]: 9; Plant response rating, Corn (corn (Zea mays); Rate 62 g/ha, Postemergence): 2; Corn plant response rating (corn (Zea mays); Rate 62 g/ha): 0; Plant response rating, Corn (corn (Zea mays); Rate 125 g/ha, Postemergence): 3; Corn plant response rating (corn (Zea mays); Rate 125 g/ha): 0; Plant response rating, Corn (corn (Zea mays); Rate 250 g/ha, Postemergence): 3; Plant response rating, Corn (corn (Zea mays); [20]): 0; Plant response rating, Sugarbeets ([12]; Rate 62 g/ha, Postemergence): 9; Sugarbeets plant response rating ([12]; Rate 62 g/ha, Preemergence): 0; Sugarbeets plant response rating ([12]; Rate 125 g/ha, Postemergence): 9; Plant response rating, Sugarbeets ([12]; Rate 125 g/ha, Preemergence): 1; Plant response rating, Sugarbeets ([12]; Rate 250 g/ha, Postemergence): 10; Plant response rating, Sugarbeets [12, 20]: 8; Plant response rating, Crabgrass ([13]; Rate 62 g/ha, Postemergence): 3; Crabgrass plant response rating ([13]; Rate 62 g/ha): 1; Plant response rating, Crabgrass ([13]; Rate 125 g/ha, Postemergence): 4; Crabgrass plant response rating ([13]; Rate 125 g/ha): 2; Plant response rating, Crabgrass ([13]; Rate 250 g/ha, Postemergence): 6; Plant response rating, Crabgrass [13, 20]: 5; Plant response rating, Velvetleaf ([14]; Rate 62 g/ha, Postemergence): 5; Velvetleaf plant response rating ([14]; Rate 62 g/ha, Preemergence): 0; Velvetleaf plant response rating ([14]; Rate 125 g/ha, Postemergence): 7; Plant response rating, Velvetleaf ([14]; Rate 125 g/ha, Preemergence): 0; Plant response rating, Velvetleaf ([14]; Rate 250 g/ha, Postemergence): 7; Plant response rating, Velvetleaf [14, 20]: 1; Plant response rating, Morningglory ([15]; Rate 62 g/ha, Postemergence): 5; Morningglory plant response rating ([15]; Rate 62 g/ha, Preemergence): 1; Morningglory plant response rating ([15]; Rate 125 g/ha, Postemergence): 8; Morningglory plant response rating ([15]; Rate 125 g/ha, Preemergence): 2; Plant response rating, Morningglory ([15]; Rate 250 g/ha, Postemergence): 8; Plant response rating, Morningglory [15, 20]: 2
